Assay results reported in patent publication USRE46698E1, “Use of cyclohexanol derivatives as antimicrobial active compounds” (MERCK PATENT GMBH, priority 2011, dated 2018).

Legend:
[1] = Rancimate assay, antioxidative capacity (Example 1); conditions: 0.1% w/w in soya oil; 120° C.; input of air 201/h
Description: The antioxidative capacity of substances I-9, I-10 and I-2 is determined in the so-called Rancimate assay. The comparative substances used are 4-t-butyl-1-cyclohexanol and tocopherol. The positive standard employed is BHT. The measurement parameter is the time duration (induction time) of the increase in the conductivity of unstabilised soya oil on exposure to air at elevated temperature. The longer the induction time, the greater the stabilising or antioxidant action. The following boundary conditions were maintained: input of air 201/h; temperature 120° C. and sample concentrations of 0.1% w/w each in soya oil. For each test substance, a relative antioxidation-protection factor is determined, which corresponds to the ratio of the induction times with and without test substance: […]

Echerichia coli = test: Antimicrobial action, microbe count (Example 6); format: cell-based; conditions: H2O (12% of ethanol); for Δlog: t24 h
Description: (§1) For sample preparation, the substances being investigated are each dissolved or homogeneously dispersed in an amount of 1.0% in a water/ethanol mixture (12% of ethanol) and subsequently diluted with bacteria suspension in the ratio 1 to 2. P. acnes (ATCC 6919) is pre-incubated under anaerobic conditions for 48 h at 35° C. on RMC agar (Merck 1.05410). A bacteria suspension having an optical density (OD) of about 1.5 is subsequently prepared in RMC broth (Merck 1.05411, double-concentrated). 150 μl of freshly prepared sample and 100 μl of paraffin are added to 150 μl of bacteria suspension per well. The optical density is determined over the course of time at 37° C. using a Bioscreen C™ analyser compared with the negative control (=vehicle without test substance). Compared with the negative control, reduced optical densities confirm growth-inhibiting substance actions.
(§2) For sample preparation, the substances being investigated are each dissolved or homogeneously dispersed in an amount of 1.0% in a water/ethanol mixture (12% of ethanol) (=sample). A bacteria suspension of S. epidermidis (ATCC 12228) having an optical density of 1.0 in CASO broth (Merck 1.05459) is diluted 1:10000 with CASO broth. 500 μl of sample are added to 500 μl of bacteria suspension, and the mixture is incubated at 35° C. for 24 h. After the incubation, the test batches are diluted to −6 in 10 unit steps, and 0.1 ml of each is plated-out on CASO agar (Merck 1.05458) and incubated at 35° C. for 24 h.
(§3) In order to determine the initial microbe count, 0.1 ml of the bacteria suspension used are plated-out on CASO agar (Merck 1.05458) and incubated at 35° C. for 24 h.
(§4) The colonies are subsequently counted, and the microbe count per ml is determined compared with the negative control (12% of ethanol in water).
(§5) The procedure corresponds to that described in Examples 4 and 5 using the microorganisms shown below. The concentrations indicated are the final use concentrations. In order to prepare the stock solution, double the final concentration were prepared in the solvent indicated. This was subsequently diluted 1:2 with the corresponding microbe suspension. In the case of Aspergillus brasiliensis, the microbe count determination was exceptionally carried out after 48 h.

[2] = system: S. epidermidis (ATCC 12228); test: Microbe count determination, bacteriostatic or bactericidal action (Example 5); format: cell-based, Staphylococcus epidermidis; conditions: 24 h at 35° C.; for Final microbe count: 1.0% sample in 12% ethanol, 500 μl + 500 μl bacteria suspension, initial count 3.8 × 10^4, negative control 5.0 × 10^7; for Note: bacteriostatic or bactericidal action: S. epidermidis
Description: as §2, §3, §4

Aspergillus brasiliensis = test: Antimicrobial action, microbe count (Example 6); format: cell-based; conditions: H2O (12% of ethanol); for Δlog: count after 48 h; for Microbe count t24 h: count carried out after 48 h
Description: as §1, §2, §3, §4, §5

Pseudomonas aeruginosa = test: Antimicrobial action, microbe count (Example 6); format: cell-based; conditions: conc. 0.5%, H2O (12% of ethanol), count t0 6.8 × 10^4
Description: as §1, §2, §3, §4, §5

Staphylococcus aureus = test: Antimicrobial action, microbe count (Example 6); format: cell-based; conditions: conc. 0.5%, H2O (12% of ethanol); for Δlog: t24 h
Description: as §1, §2, §3, §4, §5

Corynebacterium xerosis = test: Antimicrobial action, microbe count (Example 6); format: cell-based; conditions: for Δlog: t24 h
Description: as §1, §2, §3, §4, §5

[3] = system: Staphylococcus epidermidis; test: Antimicrobial action, microbe count (Example 6); format: cell-based; conditions: conc. 0.5%, H2O (12% of ethanol), count t0 3.4 × 10^4
Description: as §1, §2, §3, §4, §5

Propionibacterium acnes = test: Antimicrobial action, microbe count (Example 6); format: cell-based; conditions: for Δlog: t24 h
Description: as §1, §2, §3, §4, §5

Salmonella enterica = test: Antimicrobial action, microbe count (Example 6); format: cell-based; conditions: H2O (12% of ethanol); for Δlog: t24 h
Description: as §1, §2, §3, §4, §5

Serratia marcescens = test: Antimicrobial action, microbe count (Example 6); format: cell-based; conditions: conc. 0.5%, H2O (12% of ethanol), count t0 6.8 × 10^4
Description: as §1, §2, §3, §4, §5

[4] = system: S. epidermidis (ATCC 12228); test: Growth inhibition by optical density, Bioscreen C (Example 3); format: cell-based, Staphylococcus epidermidis; conditions: 1.0% sample in water/ethanol (12% of ethanol) diluted 1 to 2 with bacteria suspension, 37° C.
Description: For sample preparation, the substances being investigated are each dissolved or homogeneously dispersed in an amount of 1.0% in a water/ethanol mixture (12% of ethanol) and subsequently diluted with bacteria suspension in the ratio 1 to 2. S. epidermidis (ATCC 12228) is pre-incubated under aerobic conditions for 24 h at 35° C. on CASO agar (Merck 1.05458). A bacteria suspension having an optical density (OD) of about 1.0 is subsequently prepared in CASO broth (Merck 1.05459, double-concentrated) and diluted again 1:10 in CASO broth. 150 μl of freshly prepared sample are added to 150 μl of bacteria suspension per well. The optical density is determined over the course of time at 37° C. using a Bioscreen C™ analyser compared with the negative control (=vehicle without test substance). Compared with the negative control, reduced optical densities confirm growth-inhibiting substance actions
(§6) Result as optical density of the bacteria suspension after an exposure time of 20 hours: […]

P. acnes (ATCC 6919) = test: Growth inhibition by optical density, Bioscreen C (Example 4); format: cell-based, Propionibacterium acnes; conditions: 1.0% sample in water/ethanol (12% of ethanol) diluted 1 to 2 with bacteria suspension; 37° C.; negative control 1.0
Description: as §1, §6

Candida albicans = test: Antimicrobial action, microbe count (Example 6); format: cell-based; conditions: for Δlog: t24 h
Description: as §2, §3, §4, §5

[5] = Densities and viscosities, Ubbelohde viscometer, to estimate spreadability (Example 10); format: physicochemical; conditions: 25° C.
Description: Measurement of the Dynamic Viscosities in Order to Estimate the Spreadability at 25° C. After measurement of the densities and kinematic viscosities using an Ubbelohde viscometer, the following dynamic viscosities arise: Since spreadabilities and viscosities of cosmetic emollients correlate well, good spreadabilities can be concluded from the viscosities determined.

Malassezia furfur = test: Antimicrobial action, microbe count (Example 6); format: cell-based; conditions: conc. 1.0%, H2O, count t0 4.0 × 10^2
Description: as §1, §2, §3, §4, §5

[6] = conc. 0.2%, count t0 6.3 × 10^4
[7] = conc. 0.5%, count t0 4.6 × 10^4
[8] = conc. 0.5%, count t0 2.0 × 10^4
[9] = conc. 0.125%, H2O, count t0 1.0 × 10^6
[10] = conc. 0.5%, H2O (12% of ethanol), count t0 3.5 × 10^4
[11] = conc. 0.5%, H2O (12% of ethanol), count t0 2.0 × 10^4
[12] = conc. 0.5%, count t0 6.0 × 10^4
[13] = 2nd experiment, negative control 0.65
[14] = conc. 0.5%, H2O (12% of ethanol), count t0 3.4 × 10^4
[15] = conc. 0.5%, H2O, count t0 3.8 × 10^5
[16] = conc. 0.8%, count t0 6.3 × 10^4
[17] = conc. 1.0%, count t0 8.0 × 10^2
[18] = conc. 0.5%, H2O, count t0 1.0 × 10^6
[19] = conc. 1.0%, H2O, count t0 7.8 × 10^5
[20] = conc. 0.8%, count t0 1.3 × 10^4
[21] = conc. 1.0%, H2O (12% of ethanol), count t0 6.0 × 10^3

With `CC(C)(C)C1CCC(O)CC1` (stereo not drawn) [4-t-butyl-1-cyclohexanol, reference compound] the “Antioxidation-protection factor (ratio of the induction times with and without test substance)” value [1] was 1.05.

In the case of `COC(=O)c1ccc(O)cc1` [Methylparaben, methylparaben, reference compound], the “Microbe count t24 h” value (Echerichia coli; [6]) was 4.8 × 10^3 and the Δlog (Echerichia coli; [6]) was −1.12.

With `CCCCC(CC)COC(=O)C1CCCCC1O` (stereo not drawn) [Substance I-9, 2-hydroxycyclohexanecarboxylic acid 2-ethylhexyl ester] the Final microbe count [2] was 2.0 × 10^3 CFU/ml, the “Note: bacteriostatic or bactericidal action” value [2] was “bacteriostatic” and the “Microbe count t24 h” value (Echerichia coli; [7]) was 3.8 × 10^2. For the same compound, the Δlog (Echerichia coli; [7]) was −2.08, the Δlog (Aspergillus brasiliensis; [8]) was −1.40 and the “Microbe count t24 h” value (Aspergillus brasiliensis; [8]) was 8.0 × 10^2. The “Microbe count t24 h” value (Pseudomonas aeruginosa) was 9.0 × 10^3, the Δlog (Pseudomonas aeruginosa; t24 h) was −0.88 and the “Microbe count t24 h” value (Staphylococcus aureus; count t0 4.2 × 10^4) was 1.4 × 10^2. For the same compound, the Δlog (Staphylococcus aureus; count t0 4.2 × 10^4) was −2.48, the “Microbe count t24 h” value (Corynebacterium xerosis; [9]) was 5.0 × 10^6 and the Δlog (Corynebacterium xerosis; [9]) was “+0.70”. The “Microbe count t24 h” value (Corynebacterium xerosis; [10]) was 0, the Δlog (Corynebacterium xerosis; [10]) was −4.54 and the “Microbe count t24 h” value [3] was 6.0 × 10^3. For the same compound, the Δlog ([3]; t24 h) was −0.75, the “Microbe count t24 h” value (Propionibacterium acnes; [11]) was 8.0 × 10^2 and the Δlog (Propionibacterium acnes; [11]) was −1.40. For the same compound, the “Microbe count t24 h” value (Salmonella enterica; [12]) was 1.8 × 10^4, the Δlog (Salmonella enterica; [12]) was −0.52 and the “Microbe count t24 h” value (Serratia marcescens) was 9.0 × 10^3. The Δlog (Serratia marcescens; t24 h) was −0.88, the “Antioxidation-protection factor (ratio of the induction times with and without test substance)” value [1] was 1.12 and the “OD20h, optical density of the bacteria suspension after 20 hours” value (from here on “OD20h, optical density”) [4, 13] was 0.30. The “OD20h, optical density” value (P. acnes (ATCC 6919)) was 0.50, the “Microbe count t24 h” value (Candida albicans; [14]) was 1.5 × 10^1 and the Δlog (Candida albicans; [14]) was −3.36. For the same compound, the “Microbe count t24 h” value (Candida albicans; [15]) was 8.0 × 10^6, the Δlog (Candida albicans; [15]) was “+1.32” and the Density [5] was 0.9752 g/mL. For the same compound, the “Dynamic viscosity (kinematic viscosity × density)” value [5] was 32.2 mPas and the Kinematic viscosity ([5]; Ubbelohde viscometer) was 33.0 mm^2/s.

With `CC1CC(OC(=O)C2CCCCC2O)CC(C)(C)C1` (stereo not drawn) [Substance I-10, 2-hydroxycyclohexanecarboxylic acid 3,3,5-trimethylcyclohexyl ester] the Final microbe count [2] was 2.0 × 10^3 CFU/ml, the “Note: bacteriostatic or bactericidal action” value [2] was “bacteriostatic” and the “Antioxidation-protection factor (ratio of the induction times with and without test substance)” value [1] was 1.14. For the same compound, the “OD20h, optical density” value ([4]; 1st experiment, negative control 0.80) was 0.30 and the “OD20h, optical density” value (P. acnes (ATCC 6919)) was 0.45.

For `CCCCOC(=O)C1CCC(O)CC1` (stereo not drawn) [Substance I-20, 4-hydroxycyclohexanecarboxylic acid butyl ester], the Final microbe count [2] was 0 CFU/ml, the “Note: bacteriostatic or bactericidal action” value [2] was “bactericidal” and the “Microbe count t24 h” value (Echerichia coli; [16]) was 0. The Δlog (Echerichia coli; [16]) was −4.80, the Δlog (Aspergillus brasiliensis; [17]) was −0.60 and the “Microbe count t24 h” value (Aspergillus brasiliensis; [17]) was 2.0 × 10^2. The “Microbe count t24 h” value (Staphylococcus aureus; count t0 1.1 × 10^4) was 0, the Δlog (Staphylococcus aureus; count t0 1.1 × 10^4) was −4.04 and the “Microbe count t24 h” value (Malassezia furfur) was 0. For the same compound, the Δlog (Malassezia furfur; t24 h) was −2.60, the “Microbe count t24 h” value (Corynebacterium xerosis; [18]) was 0 and the Δlog (Corynebacterium xerosis; [18]) was −6.00. For the same compound, the “Microbe count t24 h” value (Propionibacterium acnes; [19]) was 1.3 × 10^4, the Δlog (Propionibacterium acnes; [19]) was −1.78 and the “Microbe count t24 h” value (Salmonella enterica; [20]) was 0. For the same compound, the Δlog (Salmonella enterica; [20]) was −4.11, the “OD20h, optical density” value [4, 13] was 0.20 and the “OD20h, optical density” value (P. acnes (ATCC 6919)) was 0.70. For the same compound, the “Microbe count t24 h” value (Candida albicans; [15]) was 0, the Δlog (Candida albicans; [15]) was −5.58 and the “Microbe count t24 h” value (Candida albicans; [21]) was 0. The Δlog (Candida albicans; [21]) was −3.78.

For tocopherol [reference compound], the “Antioxidation-protection factor (ratio of the induction times with and without test substance)” value [1] was 1.00.
